Laboratory results as given in patent US20230257373A1, “QUORUM SENSING INHIBITORS AND METHODS OF USE” (priority 2020, published 2023).
pIC50, pKd: −log10 of the molar value. Like-named read-outs stand apart in the source and are kept apart here.

Key:
[1] = target: T1, LuxR (Vibrio harveyi, UniProt P21308); test: ITC analysis of LuxR interaction with inhibitors; assay type: binding, V. campbellii; design: made in house; host or cells: E. coli BL21(DE3)
Description: (§1) To test the validity of the modelling predictions for PTSP, we performed isothermal titration calorimetry (ITC) to determine the binding affinity of SmcR and LuxR for PTSP. […] We noted that PTSP binding to both LuxR and SmcR had lower entropy and enthalpy compared to SmcR binding to Qstatin. […] Thus, we conclude that the efficacy of PTSP inhibition in vivo in these two Vibrio species correlates to the binding affinity determined in vitro for these two proteins.
(§2) SmcR and LuxR were purified as described previously. EMSAs were conducted as described previously using oligonucleotides corresponding to the luxC and vvpE promoter sequences. ITC analysis was conducted using purified LuxR or His-tagged SmcR, each in gel-filtration buffer (25 mM Tris pH 7.5, 300 mM NaCl, 0.5 mM EDTA, 1 mM DTT, 2% DMSO). All molecules analyzed were diluted in the same buffer. The samples were degassed for 10 min by vacuum aspiration. Titrations were performed on a Nano-ITC (TA Instruments). […] Thermograms were analyzed using NanoAnalyze software with the independent binding model.

[2] = target: T2, V. campbellii LuxR (Vibrio harveyi, UniProt P21308); test: qRT-PCR and western blots in wild-type V. campbellii; assay type: cell-based
T2 construct: expressed in transfected cells; host or cells: E. coli DH10B with pKM699 and reporter pJV064
Description: The Qstatin-treated regulon overlapped with the SmcR regulon by more than 50%, with similar gene expression fold-changes. […] This is important to note because LuxR and HapR proteins are known to autorepress their own expression. To test the effects of adding inhibitors to V. campbellii LuxR, we added 10A, 10B, and 10C to wild-type V. campbellii and used qRT-PCR and western blots to examine the effects on luxR transcript and protein levels. We also examined the transcript levels for luxC and 05222 genes that are directly activated or repressed by LuxR, respectively.
All PCR reactions were performed using Phusion HF polymerase (NEB). T4 polynucleotide kinase (T4 PNK) used in EMSAs and all other enzymes were purchased from NEB and used according to manufacturer's instructions. Site-directed mutagenesis for construction of plasmids expressing mutant proteins was carried out using the Agilent QuikChange II XL Site-Directed Mutagenesis Kit. All oligonucleotides were purchased from Integrated DNA Technologies (IDT).ALL plasmid constructs were confirmed by DNA sequencing (Eurofins). Cloning details for plasmids are available upon request. Western blot analysis was performed as previously described (van Kessel et al., 2013b), except that new anti-LuxR antibodies were generated through Cocalico against purified LuxR protein. In addition, the western blots were probed with anti-RpoB (Neoclone).
Then cells were induced with 50 μM IPTG and grown under the same conditions until cells reached an OD600 of approximately 1, at which 5 mL of cells were collected by centrifugation and frozen in liquid N2. RNA was extracted using a Trizol/chloroform extraction protocol previously described (Rutherford et al., 2011). Quantitative real-time PCR (qRT-PCR) was performed as previously described (Chaparian et al., 2016). Samples were normalized to the internal standard hfq gene. The ΔΔCT values were used to analyze data from three independent biological replicates. Symbols on graphs represent the mean values and error bars represent the standard deviations. All statistical analysis was performed with functions from GraphPad Prism version 8.

[3] = target: SmcR (Vibrio vulnificus, UniProt Q9L8G8); test: ITC analysis of SmcR interaction with inhibitors; assay type: binding, V. vulnificus
Description: as §1, §2

[4] = system: HapR; test: E. coli bioassay expressing HapR (IPTG-inducible plasmid); assay type: cell-based, V. cholerae
Description: We hypothesized that there were several possible reasons for the observed difference in PTSP inhibition in the various Vibrio species, including but not limited to: 1) differences in LuxR-inhibitor interaction(s), 2) differences in diffusion of the inhibitor across the membranes, or 3) stability of the inhibitor in the cell and/or cell culture. To examine PTSP activity in a common strain background, we cloned the luxR gene from each Vibrio species into a plasmid under control of an IPTG-inducible promoter and assayed the effect of PTSP against these proteins in the E. coli bioassay. […] We conclude that the differences in PTSP activity in Vibrio species is due to differences in interaction between PTSP and the LuxR-type protein in each Vibrio.
We therefore sought to determine if any of the four residues that differ between HapR and LuxR/SmcR in the putative ligand binding pocket are sufficient to render SmcR insensitive to PTSP. First, we introduced substitutions in SmcR to mimic the amino acid sequence of HapR: F75Y, I96L, […], and C170F. […] Next, we introduced single substitutions in HapR to mimic the amino acid present in SmcR: Y76F, L97I, I141V, and F171C.
In E. coli assays expressing the five different LuxR-type proteins (luxR, smcR, opaR, vcpR, hapR), slight changes to the protocol were implemented. The luxR genes were cloned under control of the IPTG-inducible Ptac promoter in plasmid pMMB67EH-kanR. […] Strains expressing hapR or smcR required 50 μM IPTG to observe activation of the GFP reporter; IPTG was not added to strains expressing luxR, vcpR, or opaR.

[5] = target: T1, LuxR; test: EMSA DNA binding activity of LuxR; assay type: biochemical, V. campbellii; design: made in house; host or cells: E. coli BL21(DE3); settings: saturating concentrations
Method: We noted that Qstatin and PTSP are both predicted to bind in the putative ligand binding pocket of SmcR. It is currently unknown how Qstatin allosterically affects DNA binding through its interactions in the ligand binding domain. […] We therefore also assessed the effect of sulfonamide PTSP on the DNA binding activity of LuxR and SmcR in vitro. […] (Kim et al., 2018).
as §2

[6] = system: PluxC-gfp reporter in V. vulnificus; test: PluxC-gfp reporter in V. vulnificus strains; settings: Vibrio vulnificus

## O=S(=O)(c1cccs1)n1ccc(-c2ccccc2)n1 [Compound 10B]
[1]
  Ka: 2.3e+06 M⁻¹
  ΔG: -8.626 kcal/mol
  ΔH: -32.529 kcal/mol
  ΔS: −335.40 J/mol · K
  −TΔS: 23.9 kcal/mol
[1]; 25° C.
  pKd: 6.29
[2]; qRT-PCR, to levels in a ΔluxR strain
  luxC transcripts: significantly decreased
[2]; qRT-PCR, wild-type cultures
  05222 transcripts: significantly increased
[2]; western blot, wild-type V. campbellii
  LuxR protein level: visible increase
[3]
  Ka: 4.85e+06 M⁻¹
  ΔG: -9.092 kcal/mol
  ΔH: -33.963 kcal/mol
  ΔS: −348.97 J/mol · K
  −TΔS: 24.869 kcal/mol
[3]; 25° C., read-out: Kd
  pKd: 6.64
[3]; listed as PTSP
  ΔG: -9.08 kcal/mol
[3]; read-out: Dissociation constant (Kd)
  pKd: 6.64
[4]; 25 μM PTSP
  Inhibition of HapR in E. coli bioassay: unresponsive
[4]; HapR Y76F, L97I, I141V, F171C, each alone
  Inhibition of HapR single substitutions: none of these substitutions alone were sufficient to make HapR sensitive
[4]; combination of Y76F and F171C
  Inhibition of HapR Y76F and F171C combination: did not result in PTSP inhibition
[5]
  DNA binding to LuxR: did not alter DNA binding
[6]; ATCC27562, read-out: IC50, V. vulnificus ATCC 27562, luxCDABE reporter plasmid
  pIC50: 7.40
[6]; ATCC27562, read-out: Inhibition (IC50) of the PluxC-gfp reporter, Vvul ATCC 27562
  pIC50: 8.71
[6]; read-out: IC50, V. vulnificus, b235
  pIC50: 8.70
[6]; read-out: IC50 values for all three V. vulnificus clinical isolates, three clinical isolates
  pIC50: 7.52 to 8.70
[6]; read-out: Inhibition (IC50) of the PluxC-gfp reporter, Vvul CMPC6
  pIC50: 7.53
[6]; read-out: Inhibition (IC50) of the PluxC-gfp reporter, Vvul YJ016
  pIC50: 8.42
